For the assay, the target named is T1, vanilloid receptor (Rattus norvegicus, UniProt O35433).
T1 construct: DRG nerve cells from the primary culture of 2 days were equilibrated; endogenous in cells; host or cells: primary culture of dorsal root ganglion neurons from neonatal SD rats
T1 sequence (O35433 whole entry): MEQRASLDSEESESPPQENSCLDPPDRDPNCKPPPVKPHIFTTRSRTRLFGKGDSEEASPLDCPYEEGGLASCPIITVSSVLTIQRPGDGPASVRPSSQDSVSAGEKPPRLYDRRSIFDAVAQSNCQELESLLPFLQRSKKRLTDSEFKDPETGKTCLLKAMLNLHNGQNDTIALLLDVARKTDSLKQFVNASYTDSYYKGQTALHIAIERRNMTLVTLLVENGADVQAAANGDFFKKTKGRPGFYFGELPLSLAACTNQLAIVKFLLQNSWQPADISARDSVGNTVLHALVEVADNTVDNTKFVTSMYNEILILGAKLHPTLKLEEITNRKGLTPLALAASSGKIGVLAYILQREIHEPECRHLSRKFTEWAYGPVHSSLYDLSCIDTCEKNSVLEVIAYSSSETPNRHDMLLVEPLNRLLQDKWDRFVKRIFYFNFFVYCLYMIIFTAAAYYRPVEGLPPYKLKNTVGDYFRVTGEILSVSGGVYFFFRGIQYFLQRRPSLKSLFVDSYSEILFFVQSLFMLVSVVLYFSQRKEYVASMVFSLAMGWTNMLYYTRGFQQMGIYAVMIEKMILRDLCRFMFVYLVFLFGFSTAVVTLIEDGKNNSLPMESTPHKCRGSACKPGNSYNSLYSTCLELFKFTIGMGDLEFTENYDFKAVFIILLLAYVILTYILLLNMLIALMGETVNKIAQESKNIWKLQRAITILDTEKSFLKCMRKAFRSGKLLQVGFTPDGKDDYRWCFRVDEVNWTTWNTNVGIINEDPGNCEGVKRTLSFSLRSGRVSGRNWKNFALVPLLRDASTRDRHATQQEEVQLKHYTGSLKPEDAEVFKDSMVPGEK
As to the kind of experiment: 45Ca influx test in cultured neonatal rat DRG neurons, inhibition of capsaicin response. The assay is classed as cell-based. Conditions: neonatal rat DRG neurons, capsaicin 0.5 μM, 45Ca influx; read-out: Antagonist Calcium Uptake Test (IC50). The method, boiled down: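 Neonatal SD rat DRG neurons, cultured 2 days with NGF (200 ng/ml) and Ara-C, were washed in HEPES (10 mM, pH 7.4)-buffered Ca/Mg-free HBSS. Test compound was added with capsaicin (final 0.5 μM) and 45Ca (10 μCi/ml) for 10 min at room temperature; 45Ca uptake counted by scintillation after SDS elution.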
Consider `CCNc1nc(C(F)(F)F)ccc1/C=C/C(=O)N[C@H](C)c1ccc(NS(C)(=O)=O)c(F)c1` [Example 246, N-[1-(3-Fluoro-4-methanesulfonylamino-phenyl)-ethyl]-3-(2-ethylamino)-6-trifluoromethyl-pyridin-3-yl-acrylamide], for which the IC50 came out at 10 nM. Consider `CCNc1nc(C(F)(F)F)ccc1/C=C/C(=O)NCc1ccc(NS(C)(=O)=O)c(C)c1` [Example 247, N-(4-methanesulfonylamino-3-methyl-benzyl)-3-(2-ethylamino-6-trifluoromethyl)-pyridin-3-yl-acrylamide], for which the concentration for half-maximal inhibition (IC50) came to 13 nM. Then `CCCNc1nc(C(F)(F)F)ccc1/C=C/C(=O)NCc1cc(F)c(NS(C)(=O)=O)cc1F` [Example 248, N-(2,5-Difluoro-4-methanesulfonylamino-benzyl)-3-(2-propylamino-6-trifluoromethyl-pyridin-3-yl)-acrylamide], with 120 nM; and `C#Cc1cc(CNC(=O)/C=C/c2ccc(C(F)(F)F)nc2NCC)cc(F)c1NS(C)(=O)=O` [Example 249, 3-(2-Ethylamino-6-trifluoromethyl-pyridin-3-yl)-N-(3-ethynyl-5-fluoro-4-methanesulfonylamino-benzyl)-acrylamide], with 25 nM; and `C=Cc1cc(CNC(=O)/C=C/c2ccc(C(F)(F)F)nc2NCC)cc(F)c1NS(C)(=O)=O` [Example 250, 3-(2-Ethylamino-6-trifluoromethyl-pyridin-3-yl)-N-(3-fluoro-4-methanesulfonylamino-5-vinyl-benzyl)-acrylamide], with 32 nM.

In the case of `CCCc1nc(C(F)(F)F)ccc1/C=C/C(=O)NCc1ccc(NS(C)(=O)=O)cc1Cl` [Example 251, N-(2-Chloro-4-methanesulfonylamino-benzyl)-3-(2-propyl-6-trifluoromethyl-pyridin-3-yl)-acrylamide], the 50% inhibitory concentration (IC50) stood at 700 nM.

`CCCc1nc(C(F)(F)F)ccc1/C=C/C(=O)NCc1ccc(NS(C)(=O)=O)cc1` [Example 252, N-(4-Methanesulfonylamino-benzyl)-3-(2-propyl-6-trifluoromethyl-pyridin-3-yl)-acrylamide]: the IC50 was 330 nM. For the compound `CCCNc1nc(C(F)(F)F)ccc1/C=C/C(=O)NCc1ccc(NS(C)(=O)=O)c(Cl)c1` [Example 254, N-(3-Chloro-4-methanesulfonylamino-benzyl)-3-(2-propylamino-6-trifluoromethyl)-pyridin-3-yl-acrylamide], the IC50 was determined as 150 nM.

As to `CCNc1nc(C(F)(F)F)ccc1/C=C/C(=O)NCc1cc(F)c(NS(C)(=O)=O)cc1F` [Example 255, N-(2,5-Difluoro-4-methanesulfonylamino-benzyl)-3-(2-ethylamino-6-trifluoromethyl)-pyridin-3-yl-acrylamide], the IC50 turned out to be 130 nM. Take `CCNc1nc(C(F)(F)F)ccc1/C=C/C(=O)NCc1ccc(NS(C)(=O)=O)c(F)c1` [Example 256, 3-(2-Ethylamino-6-trifluoromethyl-pyridin-3-yl)-N-(3-fluoro-4-methanesulfonylamino-benzyl)-acrylamide]: the concentration for half-maximal inhibition (IC50) came to 68 nM. Take `CCNc1nc(C(F)(F)F)ccc1/C=C/C(=O)NCc1cc(F)c(NS(C)(=O)=O)c(F)c1` [Example 257, N-(3,5-Difluoro-4-methanesulfonylamino-benzyl)-3-(2-ethylamino-6-trifluoromethyl-pyridin-3-yl)-acrylamide]: the half-inhibitory concentration (IC50) was 56 nM. Consider `CCNc1nc(C(F)(F)F)ccc1/C=C/C(=O)NCc1cc(C)c(NS(C)(=O)=O)c(F)c1` [Example 258, 3-(2-Ethylamino-6-trifluoromethyl-pyridin-3-yl)-N-(3-fluoro-4-methanesulfonylamino-5-methyl-benzyl)-acrylamide], for which the IC50 is 21 nM.

In the case of `CCNc1nc(C(F)(F)F)ccc1/C=C/C(=O)NCc1cc(F)c(NS(C)(=O)=O)c(C#N)c1` [Example 259, N-(3-Cyano-5-fluoro-4-methanesulfonylamino-benzyl)-3-(2-ethylamino-6-trifluoromethyl-pyridin-3-yl)-acrylamide], the IC50 was 190 nM. Then `C#Cc1cc(CNC(=O)C#Cc2ccc(C(F)(F)F)nc2NCCCC)cc(F)c1NS(C)(=O)=O` [Example 260, 3-(2-Butylamino-6-trifluoromethyl-pyridin-3-yl)-propynoic acid, 3-ethynyl-5-fluoro-4-methanesulfonylamino-benzylamide], with 810 nM; and `CCCCc1nc(C(F)(F)F)ccc1C#CC(=O)NCc1cc(F)c(NS(C)(=O)=O)c(F)c1` [Example 261, 3-(2-Butyl-6-trifluoromethyl-pyridin-3-yl)-propynoic acid 3,5-difluoro-4-methanesulfonylamino-benzylamide], with 350 nM. With `CCCCc1nc(C(F)(F)F)ccc1C#CC(=O)N[C@H](C)c1cc(F)c(NS(C)(=O)=O)c(F)c1` [Example 262, 3-(2-Butyl-6-trifluoromethyl-pyridin-3-yl)-propynoic acid [1-(3,5-difluoro-4-methanesulfonylamino-phenyl)-ethyl]-amide], the IC50 was 150 nM. As for `CCCCc1nc(C(F)(F)F)ccc1C#CC(=O)NCc1ccc(NS(C)(=O)=O)cc1Cl` [Example 263, 3-(2-Butyl-6-trifluoromethyl-pyridin-3-yl)-propynoic acid 2-chloro-4-methanesulfonylamino-benzylamide], the IC50 was determined as 4700 nM.

As to `CS(=O)(=O)Nc1ccc(CNC(=O)/C=C/c2ccc(C(F)(F)F)nc2CCc2ccccc2)cc1` [Example 264, N-(4-Methanesulfonylamino-benzyl)-3-(2-phenethyl-6-trifluoromethyl-pyridin-3-yl)-acrylamide], the concentration for half-maximal inhibition (IC50) is 340 nM. Take `CC(C)Cc1nc(C(F)(F)F)ccc1/C=C/C(=O)NCc1ccc(NS(C)(=O)=O)cc1` [Example 265, 3-(2-Isobutyl-6-trifluoromethyl-pyridin-3-yl)-N-(4-methanesulfonylamino-benzyl)-acrylamide]: the IC50 came out at 770 nM. With `CCCCc1nc(C(F)(F)F)ccc1C#CC(=O)NCc1ccc(NS(C)(=O)=O)cc1` [Example 266, 3-(2-Butyl-6-trifluoromethyl-pyridin-3-yl)-propynoic acid 4-methanesulfonylamino-benzylamide], the IC50 came out at 1400 nM. With `C=CS(=O)(=O)Nc1ccc(CNC(=O)/C=C/c2ccc(C(F)(F)F)nc2NC(C)C)cc1` [Example 267, N-(4-Ethenesulfonylamino-benzyl)-3-(2-isopropylamino-6-trifluoromethyl-pyridin-3-yl)-acrylamide], the concentration for half-maximal inhibition (IC50) stood at 450 nM. On to `C=CS(=O)(=O)Nc1ccc(CNC(=O)/C=C/c2ccc(C(F)(F)F)nc2CCc2ccccc2)cc1` [Example 268, N-(4-Ethenesulfonylamino-benzyl)-3-(2-phenethyl-6-trifluoromethyl-pyridin-3-yl)-acrylamide], for which the 50% inhibitory concentration (IC50) was found to be 2900 nM.

In the case of `C=CS(=O)(=O)Nc1ccc(CNC(=O)/C=C/c2ccc(C(F)(F)F)nc2CC(C)C)cc1` [Example 269, N-(4-Ethenesulfonylamino-benzyl)-3-(2-isobutyl-6-trifluoromethyl-pyridin-3-yl)-acrylamide], the IC50 stood at 1400 nM. Then `CC(C)Nc1nc(C(F)(F)F)ccc1/C=C/C(=O)NCc1ccc(NS(=O)(=O)C(F)(F)F)cc1` [Example 270, 3-(2-Isopropylamino-6-trifluoromethyl-pyridin-3-yl)-N-(4-trifluoromethanesulfonylamino-benzyl)-acrylamide], with more than 10000 nM; and `CCC/C(=C/C(=O)NCc1ccc(NS(C)(=O)=O)c(Cl)c1)c1ccc(C(F)(F)F)nc1CCC` [Example 271], with 1300 nM; and `CCC/C(=C\C(=O)NCc1ccc(NS(C)(=O)=O)c(Cl)c1)c1ccc(C(F)(F)F)nc1CCC` [Example 272], with 740 nM.

Turning to `CCCCc1nc(C(F)(F)F)ccc1C#CC(=O)NCc1cc(C)c(NS(C)(=O)=O)c(F)c1` [Example 273, 3-(2-Butyl-6-trifluoromethyl-pyridin-3-yl)-propynoic acid 3-fluoro-4-methanesulfonylamino-5-methyl-benzylamide], the IC50 came out at 840 nM. `CCCCc1nc(C(F)(F)F)ccc1C#CC(=O)N[C@H](C)c1ccc(NS(C)(=O)=O)c(F)c1` [Example 274, 3-(2-Butyl-6-trifluoromethyl-pyridin-3-yl)-propynoic acid [1-(3-fluoro-4-methane sulfonylamino-phenyl)-ethyl]-amide]: the IC50 is 1200 nM. Then `C#Cc1cc(CNC(=O)/C=C(/CCC)c2ccc(C(F)(F)F)nc2CCC)cc(F)c1NS(C)(=O)=O` [Example 275], with 310 nM; and `C#Cc1cc(CNC(=O)/C=C(\CCC)c2ccc(C(F)(F)F)nc2CCC)cc(F)c1NS(C)(=O)=O` [Example 276], with 240 nM. For `CCC/C(=C/C(=O)N[C@H](C)c1cc(F)c(NS(C)(=O)=O)c(F)c1)c1ccc(C(F)(F)F)nc1CCC` [Example 277, (Z)-3-(2-Propyl-6-trifluoromethyl-pyridin-3-yl)-hex-2-enoic acid [1-(3,5-difluoro-4-methanesulfonylamino-phenyl)-ethyl]-amide], the half-inhibitory concentration (IC50) came out at 320 nM. As to `CCC/C(=C\C(=O)N[C@H](C)c1cc(F)c(NS(C)(=O)=O)c(F)c1)c1ccc(C(F)(F)F)nc1CCC` [Example 278, (E)-3-(2-Propyl-6-trifluoromethyl-pyridin-3-yl)-hex-2-enoic acid [1-(3,5-difluoro-4-methanesulfonylamino-phenyl)-ethyl]-amide], the half-maximal inhibitory concentration (IC50) was 160 nM. In the case of `O=C(/C=C/c1ccc(C(F)(F)F)nc1CCc1ccccc1)NCc1ccc(NS(=O)(=O)C(F)(F)F)cc1` [Example 279, 3-(2-Phenethyl-6-trifluoromethyl-pyridin-3-yl)-N-(4-trifluoromethanesulfonylamino-benzyl)-acrylamide], the half-maximal inhibitory concentration (IC50) was found to be 3900 nM. For `CC(C)(C)c1ccc(/C=C/C(=O)NCc2ccc(NS(C)(=O)=O)c(F)c2)cn1` [Examples 1], the IC50 was determined as 1300 nM. For the compound `CC(C)(C)c1ccc(/C=C/C(=O)NCc2ccc(NS(C)(=O)=O)c(Cl)c2)cn1` [Examples 2], the half-maximal inhibitory concentration (IC50) worked out at 1300 nM.

As usually defined, the IC50 is the concentration that inhibits the measured activity by half.
